Experimental data: patent US20260306503A1, “(S)-2-HYDROXY-6-((4-(2-(2-HYDROXYETHYL)NICOTINOYL)MORPHOLIN-3-YL)METHOXY)BENZALDEHYD FOR USE IN THE TREATMENT OF SICKLE CELL DISEASE” (Global Blood Therapeutics, Inc., priority 2023, published 2026)

System: participants with SCD
Experiment: Preliminary blood analysis of SCD patients given oral Compound I, 300 mg QD for 14 days then 200 mg QD through Week 12 (Part A Sub Study 2);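 as to Bilirubin total: values in mg/dL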
Assay type: in vivo, human
Protocol: Part A of this study is a Phase 2 randomized, open-label, dose-finding study in approximately 60 adult participants with SCD. The primary objective of Part A of this study is to assess the effects of Compound I in adult participants with SCD as measured by change in hemoglobin.
Participants are screened for eligibility in the study from Day −28 through Day −1. Eligible participants are randomized on Day 1 based on a 1:1 (100 mg: 150 mg) allocation and will receive their initial dose (loading dose) of Compound I. After completion of Day 1 assessments and subsequent loading doses, participants will continue with administration of their maintenance dose daily through Week 12.
Some newly enrolled participants in Part A will receive a loading dose regimen of 300 mg of Compound I once daily over the first 14 days. Participants will then receive 200 mg once daily maintenance doses through Week 12.

Compound: O=Cc1c(O)cccc1OC[C@@H]1COCCN1C(=O)c1cccnc1CCO [Compound I, (S)-2-hydroxy-6-((4-(2-(2-hydroxyethyl)nicotinoyl)morpholin-3-yl)methoxy)benzaldehyde]
- Bilirubin direct (Patient A, Day 1, Day 0 (screening) 0.48): <0.01 mg/dL
- Absolute neutrophil (Patient A, Day 1, Day 0 (screening) 1.7): 2.2 K/μL
- Reticulocytes (Patient A, Day 1, Day 0 (screening) 2.2): 5.2%
- Bilirubin total (Patient A, Day 1, Day 0 (screening) 2.4): 2.16 mg/dL
- Hemoglobin (HGB) (Patient A, Day 1, Day 0 (screening) 7.0): 8.8 g/dL
- Hematocrit (HCT) (Patient A, Day 1, Day 0 (screening) 20.4): 25.1%
- Alanine Aminotransferase (ALT) (Patient A, Day 1, Day 0 (screening) 26.1): 28.2 IU/L
- Aspartate Aminotransferase (AST) (Patient A, Day 1, Day 0 (screening) 56.0): 60.0 IU/L
- Alkaline phosphatase (Patient A, Day 1, Day 0 (screening) 143.5): 152.7 IU/L
- Platelet count (Patient A, Day 1, Day 0 (screening) 148): 219 K/μL
- Lactate dehydrogenase (LDH) (Patient A, Day 1, Day 0 (screening) 358): 339 IU/L
- Bilirubin direct (Patient A, Day 15, Day 0 (screening) 0.48): <0.01 mg/dL
- Absolute neutrophil (Patient A, Day 15, Day 0 (screening) 1.7): 2.2 K/μL
- Reticulocytes (Patient A, Day 15, Day 0 (screening) 2.2): 3.0%
- Bilirubin total (Patient A, Day 15, Day 0 (screening) 2.4): 1.06 mg/dL
- Hemoglobin (HGB) (Patient A, Day 15, Day 0 (screening) 7.0): 10.6 g/dL
- Hematocrit (HCT) (Patient A, Day 15, Day 0 (screening) 20.4): 30.9%
- Alanine Aminotransferase (ALT) (Patient A, Day 15, Day 0 (screening) 26.1): 26.1 IU/L
- Aspartate Aminotransferase (AST) (Patient A, Day 15, Day 0 (screening) 56.0): 43.1 IU/L
- Alkaline phosphatase (Patient A, Day 15, Day 0 (screening) 143.5): 156.7 IU/L
- Platelet count (Patient A, Day 15, Day 0 (screening) 148): 239 K/μL
- Lactate dehydrogenase (LDH) (Patient A, Day 15, Day 0 (screening) 358): 243 IU/L
- Absolute neutrophil (Patient A, Day 29, Day 0 (screening) 1.7): 0.5 K/μL
- Reticulocytes (Patient A, Day 29, Day 0 (screening) 2.2): 2.0%
- Hemoglobin (HGB) (Patient A, Day 29, Day 0 (screening) 7.0): 12.2 g/dL
- Hematocrit (HCT) (Patient A, Day 29, Day 0 (screening) 20.4): 35.9%
- Platelet count (Patient A, Day 29, Day 0 (screening) 148): 211 K/μL
- Bilirubin direct (Patient A, Day 43, Day 0 (screening) 0.48): 0.28 mg/dL
- Absolute neutrophil (Patient A, Day 43, Day 0 (screening) 1.7): 0.6 K/μL
- Bilirubin indirect (Patient A, Day 43, Day 0 (screening) 1.92): 0.78 mg/dL
- Reticulocytes (Patient A, Day 43, Day 0 (screening) 2.2): 1.5%
- Bilirubin total (Patient A, Day 43, Day 0 (screening) 2.4): 1.06 mg/dL
- Hemoglobin (HGB) (Patient A, Day 43, Day 0 (screening) 7.0): 14.9 g/dL
- Hematocrit (HCT) (Patient A, Day 43, Day 0 (screening) 20.4): 43.3%
- Alanine Aminotransferase (ALT) (Patient A, Day 43, Day 0 (screening) 26.1): 28.9 IU/L
- Aspartate Aminotransferase (AST) (Patient A, Day 43, Day 0 (screening) 56.0): 44.1 IU/L
- Alkaline phosphatase (Patient A, Day 43, Day 0 (screening) 143.5): 160.8 IU/L
- Platelet count (Patient A, Day 43, Day 0 (screening) 148): 249 K/μL
- Lactate dehydrogenase (LDH) (Patient A, Day 43, Day 0 (screening) 358): 193 IU/L
- Bilirubin direct (Patient A, Day 57, Day 0 (screening) 0.48): 0.38 mg/dL
- Absolute neutrophil (Patient A, Day 57, Day 0 (screening) 1.7): 3.5 K/μL
- Bilirubin indirect (Patient A, Day 57, Day 0 (screening) 1.92): 2.39 mg/dL
- Reticulocytes (Patient A, Day 57, Day 0 (screening) 2.2): 0.1%
- Bilirubin total (Patient A, Day 57, Day 0 (screening) 2.4): 2.77 mg/dL
- Hemoglobin (HGB) (Patient A, Day 57, Day 0 (screening) 7.0): 12.4 g/dL
- Hematocrit (HCT) (Patient A, Day 57, Day 0 (screening) 20.4): 36.3%
- Alanine Aminotransferase (ALT) (Patient A, Day 57, Day 0 (screening) 26.1): 66.6 IU/L
- Aspartate Aminotransferase (AST) (Patient A, Day 57, Day 0 (screening) 56.0): 82.9 IU/L
- Alkaline phosphatase (Patient A, Day 57, Day 0 (screening) 143.5): 198.2 IU/L
- Platelet count (Patient A, Day 57, Day 0 (screening) 148): 153 K/μL
- Lactate dehydrogenase (LDH) (Patient A, Day 57, Day 0 (screening) 358): 345 IU/L
- Bilirubin direct (Patient A, Day 85, Day 0 (screening) 0.48): 0.08 mg/dL
- Absolute neutrophil (Patient A, Day 85, Day 0 (screening) 1.7): 1.1 K/μL
- Bilirubin indirect (Patient A, Day 85, Day 0 (screening) 1.92): 2.81 mg/dL
- Reticulocytes (Patient A, Day 85, Day 0 (screening) 2.2): 5.2%
- Bilirubin total (Patient A, Day 85, Day 0 (screening) 2.4): 2.89 mg/dL
- Hemoglobin (HGB) (Patient A, Day 85, Day 0 (screening) 7.0): 11.0 g/dL
- Hematocrit (HCT) (Patient A, Day 85, Day 0 (screening) 20.4): 31.0%
- Alanine Aminotransferase (ALT) (Patient A, Day 85, Day 0 (screening) 26.1): 28.2 IU/L
- Aspartate Aminotransferase (AST) (Patient A, Day 85, Day 0 (screening) 56.0): 54.0 IU/L
- Alkaline phosphatase (Patient A, Day 85, Day 0 (screening) 143.5): 150.6 IU/L
- Platelet count (Patient A, Day 85, Day 0 (screening) 148): 146 K/μL
- Lactate dehydrogenase (LDH) (Patient A, Day 85, Day 0 (screening) 358): 354 IU/L
- Bilirubin direct (Patient B, Day 1, Day 0 (screening) 0.18): 0.18 mg/dL
- Bilirubin indirect (Patient B, Day 1, Day 0 (screening) 4.66): 4.17 mg/dL
- Bilirubin total (Patient B, Day 1, Day 0 (screening) 4.84): 4.35 mg/dL
- Absolute neutrophil (Patient B, Day 1, Day 0 (screening) 6.9): 7.3 K/μL
- Hemoglobin (HGB) (Patient B, Day 1, Day 0 (screening) 8.3): 8.5 g/dL
- Reticulocytes (Patient B, Day 1, Day 0 (screening) 11.5): 9.5%
- Alanine Aminotransferase (ALT) (Patient B, Day 1, Day 0 (screening) 22.0): 22.0 IU/L
- Hematocrit (HCT) (Patient B, Day 1, Day 0 (screening) 23.5): 24.7%
- Aspartate Aminotransferase (AST) (Patient B, Day 1, Day 0 (screening) 41.1): 39.1 IU/L
- Alkaline phosphatase (Patient B, Day 1, Day 0 (screening) 49.3): 52.4 IU/L
- Platelet count (Patient B, Day 1, Day 0 (screening) 360): 344 K/μL
- Lactate dehydrogenase (LDH) (Patient B, Day 1, Day 0 (screening) 371): 351 IU/L
- Bilirubin direct (Patient B, Day 8, Day 0 (screening) 0.18): 0.08 mg/dL
- Bilirubin indirect (Patient B, Day 8, Day 0 (screening) 4.66): 2.32 mg/dL
- Bilirubin total (Patient B, Day 8, Day 0 (screening) 4.84): 2.4 mg/dL
- Absolute neutrophil (Patient B, Day 8, Day 0 (screening) 6.9): 4.1 K/μL
- Hemoglobin (HGB) (Patient B, Day 8, Day 0 (screening) 8.3): 11.2 g/dL
- Reticulocytes (Patient B, Day 8, Day 0 (screening) 11.5): 5.4%
- Alanine Aminotransferase (ALT) (Patient B, Day 8, Day 0 (screening) 22.0): 21.3 IU/L
- Hematocrit (HCT) (Patient B, Day 8, Day 0 (screening) 23.5): 33.1%
- Aspartate Aminotransferase (AST) (Patient B, Day 8, Day 0 (screening) 41.1): 42.1 IU/L
- Alkaline phosphatase (Patient B, Day 8, Day 0 (screening) 49.3): 58.5 IU/L
- Platelet count (Patient B, Day 8, Day 0 (screening) 360): 411 K/μL
- Lactate dehydrogenase (LDH) (Patient B, Day 8, Day 0 (screening) 371): 385 IU/L
- Bilirubin direct (Patient B, Day 29, Day 0 (screening) 0.18): 0.18 mg/dL
- Bilirubin indirect (Patient B, Day 29, Day 0 (screening) 4.66): 0.88 mg/dL
- Bilirubin total (Patient B, Day 29, Day 0 (screening) 4.84): 1.06 mg/dL
- Absolute neutrophil (Patient B, Day 29, Day 0 (screening) 6.9): 4.1 K/μL
- Hemoglobin (HGB) (Patient B, Day 29, Day 0 (screening) 8.3): 14.4 g/dL
- Reticulocytes (Patient B, Day 29, Day 0 (screening) 11.5): 1.2%
- Alanine Aminotransferase (ALT) (Patient B, Day 29, Day 0 (screening) 22.0): 17.2 IU/L
- Hematocrit (HCT) (Patient B, Day 29, Day 0 (screening) 23.5): 42.8%
- Aspartate Aminotransferase (AST) (Patient B, Day 29, Day 0 (screening) 41.1): 29.1 IU/L
- Alkaline phosphatase (Patient B, Day 29, Day 0 (screening) 49.3): 67.6 IU/L
- Platelet count (Patient B, Day 29, Day 0 (screening) 360): 333 K/μL
- Lactate dehydrogenase (LDH) (Patient B, Day 29, Day 0 (screening) 371): 195 IU/L
- Bilirubin direct (Patient B, Day 43, Day 0 (screening) 0.18): 0.18 mg/dL
- Bilirubin indirect (Patient B, Day 43, Day 0 (screening) 4.66): 0.51 mg/dL
- Bilirubin total (Patient B, Day 43, Day 0 (screening) 4.84): 0.69 mg/dL
- Absolute neutrophil (Patient B, Day 43, Day 0 (screening) 6.9): 3.7 K/μL
- Hemoglobin (HGB) (Patient B, Day 43, Day 0 (screening) 8.3): 15.2 g/dL
- Reticulocytes (Patient B, Day 43, Day 0 (screening) 11.5): 0.8%
- Alanine Aminotransferase (ALT) (Patient B, Day 43, Day 0 (screening) 22.0): 16.5 IU/L
